Data taken from a compilation of properties of binary mixtures (doi:10.1016/j.molliq.2012.10.030).

Experiment: xn = mol fraction of the nth substance listed
Settings: 101 kPa

Nc1ccccc1 + CC[n+]1ccn(C)c1.F[B-](F)(F)F
speed of sound [m/s]
Settings | 293.15 K | 298.15 K | 303.15 K | 308.15 K
x1 = 0.0697 | – | 1622.2 | 1610.3 | –
x1 = 0.0803 | 1635.7 | 1622.9 | – | 1598.9
x1 = 0.1286 | 1640 | 1626.7 | 1614.7 | 1602.6
x1 = 0.1717 | – | 1631.2 | – | 1606.5
x1 = 0.2251 | 1650.5 | 1637.2 | – | 1612.4
x1 = 0.2724 | 1656.5 | – | 1630.2 | 1617.6
x1 = 0.3253 | 1662.9 | – | 1636.4 | 1624.1
x1 = 0.3805 | 1669.9 | – | 1642.3 | 1630.2
x1 = 0.4288 | 1675 | 1662 | 1647.5 | 1634.5
x1 = 0.4681 | 1679 | 1666.2 | – | 1637.9
x1 = 0.5287 | – | 1670.4 | – | 1642
x1 = 0.5755 | – | 1673.2 | – | 1643
x1 = 0.6258 | – | 1673.9 | – | 1643.3
x1 = 0.6802 | – | 1673.3 | 1655.5 | –
x1 = 0.7231 | – | 1672 | – | 1639.2
x1 = 0.7785 | 1685.7 | 1667.6 | 1648.9 | 1634.7
x1 = 0.8257 | 1681.7 | 1663.2 | 1644.1 | 1628.9
x1 = 0.8697 | – | – | 1638.4 | –

CNc1ccccc1 + CC[n+]1ccn(C)c1.F[B-](F)(F)F
speed of sound [m/s]
Settings | 293.15 K | 298.15 K | 303.15 K | 308.15 K
x1 = 0.0712 | – | 1614.7 | 1602.2 | 1590.8
x1 = 0.0944 | – | 1613.8 | 1601 | –
x1 = 0.1175 | – | 1613.2 | 1600.3 | 1588.7
x1 = 0.1685 | 1624.3 | 1612.5 | 1599.3 | 1587.6
x1 = 0.2164 | – | – | 1599.5 | 1587
x1 = 0.2818 | 1626.5 | 1613.9 | – | 1587.3
x1 = 0.3365 | 1628.2 | – | 1601.2 | 1587.4
x1 = 0.3805 | 1629.4 | 1616.2 | 1602.2 | –
x1 = 0.4166 | 1630.8 | 1617.3 | 1602.8 | 1587.8
x1 = 0.4775 | 1632.2 | 1617.7 | 1602.8 | 1587.7
x1 = 0.5287 | 1632.6 | 1617.9 | 1602.4 | 1586.3
x1 = 0.5855 | 1631.8 | 1616.5 | 1601.1 | 1584.2
x1 = 0.6144 | 1631 | 1615.8 | 1599.8 | 1583
x1 = 0.6638 | 1629.2 | 1612.8 | 1596.4 | –
x1 = 0.7202 | 1625.3 | 1608.7 | 1591.8 | 1573.8
x1 = 0.7822 | 1618.8 | 1601.9 | 1584.4 | 1566.7
x1 = 0.8343 | 1612 | 1594.6 | 1577.1 | 1558.8
x1 = 0.8775 | 1605.6 | 1587.8 | 1570.3 | 1551.7

Cc1ccccc1N + CC[n+]1ccn(C)c1.F[B-](F)(F)F
speed of sound [m/s]
Settings | 293.15 K | 298.15 K | 303.15 K | 308.15 K
x1 = 0.0684 | 1639.1 | 1625 | 1612.5 | 1600.1
x1 = 0.0786 | – | 1626.5 | – | 1601.3
x1 = 0.1243 | – | 1634.3 | 1621.2 | 1607.9
x1 = 0.1783 | – | 1645.9 | 1632 | 1618
x1 = 0.2255 | 1668.2 | 1657.2 | 1643.2 | –
x1 = 0.2781 | 1679.5 | 1670.1 | – | 1640.6
x1 = 0.3234 | 1689.5 | – | 1667.1 | 1651.6
x1 = 0.3712 | – | – | 1678 | 1662.1
x1 = 0.4096 | 1706.3 | – | 1685.2 | 1669.1
x1 = 0.4763 | 1716.8 | 1710.8 | – | 1679
x1 = 0.5242 | 1722.8 | 1716 | 1700.5 | 1683.9
x1 = 0.5781 | 1726.3 | 1717.7 | 1701.7 | 1685
x1 = 0.6254 | 1725.7 | – | 1698.4 | –
x1 = 0.6771 | 1723.3 | 1709.7 | 1692.5 | 1675.6
x1 = 0.7226 | 1716.8 | 1700.6 | 1682.6 | 1665.6
x1 = 0.7683 | 1708 | 1689.4 | 1670.5 | 1653.2
x1 = 0.8276 | 1692.8 | 1671.5 | 1651.2 | 1633.6
x1 = 0.8687 | 1679 | 1656.7 | 1635.4 | 1617.4
